{"source": "patent US20080268451A1", "about": "“MEASUREMENT OF AN INSOLUBLE ANALYTE IN A SAMPLE” (priority 2007, published 2008)", "key": {"[1]": {"system": "Cyp1A1", "experiment": "qNPA gene expression, rifampicin-treated canine hepatocytes", "type": "cell-based", "conditions": "0-10 μM rifampicin"}, "[2]": {"system": "Cyp2D15", "experiment": "qNPA gene expression, rifampicin-treated canine hepatocytes", "type": "cell-based", "conditions": "0-10 μM rifampicin"}, "[3]": {"system": "Cyp2A337", "conditions": "canine hepatocytes, 0-10 μM rifampicin, qNPA"}, "[4]": {"system": "Cyp2B6", "experiment": "qNPA gene expression, rifampicin-treated human primary liver cells", "conditions": "0-10 μM rifampicin"}, "[5]": {"system": "Cyp2D6", "experiment": "qNPA gene expression, rifampicin-treated human primary liver cells", "conditions": "0-10 μM rifampicin"}}, "data": [{"smiles": "CO[C@H]1/C=C/O[C@@]2(C)Oc3c(C)c(O)c4c(O)c(c(/C=N/N5CCN(C)CC5)c(O)c4c3C2=O)NC(=O)/C(C)=C\\C=C\\[C@H](C)[C@H](O)[C@@H](C)[C@@H](O)[C@@H](C)[C@H](OC(C)=O)[C@@H]1C", "note": "[rifampicin]", "values": [{"measurement": "Cyp1A1 gene expression", "setting": "[1]", "value": "upregualted"}, {"measurement": "Cyp2D15 gene expression", "setting": "[2]", "value": "upregualted"}, {"measurement": "Cyp2A337 gene expression", "setting": "[3]", "value": "upregualted"}, {"measurement": "Cyp2B6 transcript level (enzyme induction)", "setting": "[4]", "value": "induced"}, {"measurement": "Cyp2D6 transcript level", "setting": "[5]; qNPA", "value": "suppressed"}, {"measurement": "suppression of Cyp2D6", "setting": "[5]; qNPA (Panel a of FIG. 27)", "value": "less than 50%"}]}]}
